Measurements: patent US7160919B2, “C7 lactyloxy-substituted taxanes” (Florida State University Research Foundation, Inc., priority 2004, dated 2007)

Columns and labels:
HCT116 cells = test: In vitro cytotoxicity, cell colony formation assay (HCT116); format: cell-based; details: colonies counted after 7 days, concentration producing 50% inhibition of colony formation
Protocol: (§1) Four hundred cells (HCT116) were plated in 60 mm Petri dishes containing 2.7 mL of medium (modified McCoy's 5a medium containing 10% fetal bovine serum and 100 units/mL penicillin and 100 µg/mL streptomycin). The cells were incubated in a CO2 incubator at 37° C. for 5 h for attachment to the bottom of Petri dishes. The compound identified in Example 1 was made up fresh in medium at ten times the final concentration, and then 0.3 mL of this stock solution was added to the 2.7 mL of medium in the dish. The cells were then incubated with drugs for 72 h at 37° C. At the end of incubation the drug-containing media were decanted, the dishes were rinsed with 4 mL of Hank's Balance Salt Solution (HBSS), 5 mL of fresh medium was added, and the dishes were returned to the incubator for colony formation. The cell colonies were counted using a colony counter after incubation for 7 days. Cell survival was calculated and the values of IC50 (the drug concentration producing 50% inhibition of colony formation) were determined for each tested compound.
(§2) The assays described above were repeated using the compound identified in Example 2. The results of these assays are tabulated below in comparison with data for paclitaxel and docetaxel.

VM46 colon cell line = test: In vitro cytotoxicity, cell colony formation assay (VM46); format: cell-based; details: 72 h drug incubation, colonies counted after 7 days, concentration producing 50% inhibition of colony formation
Protocol: as §1
An identical assessment was carried out using the VM46 colon cell line.
as §2

[1] = Homo sapiens, HCT-116, 72 h drug incubation

`CC(=O)O[C@@]12CO[C@@H]1C[C@H](OC(=O)[C@@H](C)O)[C@@]1(C)C(=O)[C@H](O)C3=C(C)[C@@H](OC(=O)[C@H](O)[C@@H](NC(=O)OC(C)(C)C)c4ccco4)C[C@@](O)([C@@H](OC(=O)c4ccccc4)C12)C3(C)C` (stereo partly drawn) [7-((R)-(+)-2-hydroxyloxypropionyl)-2-furyl-Docetaxel] gave an IC50 (HCT116 cells; [1]) of 0.05 nM and an IC50 (VM46 colon cell line) of 4.22 nM.

With `CC(=O)O[C@@]12CO[C@@H]1C[C@H](OC(=O)[C@H](C)O)[C@@]1(C)C(=O)[C@H](O)C3=C(C)[C@@H](OC(=O)[C@H](O)[C@@H](NC(=O)OC(C)(C)C)c4ccco4)C[C@@](O)([C@@H](OC(=O)c4ccccc4)C12)C3(C)C` (stereo partly drawn) [7-((S)-(−)-2-hydroxyloxypropionyl)-2-furyl-Docetaxel] the IC50 (HCT116 cells; [1]) was 0.17 nM, the melting point was 174 to 176 °C and the IC50 (VM46 colon cell line) was 2.5 nM.

`CC(=O)O[C@@]12CO[C@@H]1C[C@H](O)[C@@]1(C)C(=O)[C@H](O)C3=C(C)[C@@H](OC(=O)[C@H](O)[C@@H](NC(=O)OC(C)(C)C)c4ccccc4)C[C@@](O)([C@@H](OC(=O)c4ccccc4)[C@H]21)C3(C)C` [Docetaxel, docetaxel, reference compound] showed an IC50 (HCT116 cells; 72 h drug incubation) of 0.6 nM and an IC50 (VM46 colon cell line) of 6.7 nM.

For `CC(=O)O[C@H]1C(=O)[C@@]2(C)[C@H]([C@H](OC(=O)c3ccccc3)[C@]3(O)C[C@H](OC(=O)[C@H](O)[C@@H](NC(=O)c4ccccc4)c4ccccc4)C(C)=C1C3(C)C)[C@]1(OC(C)=O)CO[C@@H]1C[C@@H]2O` [Paclitaxel, paclitaxel, reference compound], the IC50 (HCT116 cells; [1]) was 2.1 nM and the IC50 (VM46 colon cell line) was 20 nM.
